Source: patent publication US11000033B2, “Ketone or oxime compound, and herbicide” (NISSAN CHEMICAL CORPORATION, priority 2014, dated 2021)

Legend:
Format in all cases: in vivo
Galium spurium [1] = experiment: Test Example 5: herbicidal effect by foliage application, plastic box (symbol Q); conditions: 320 g/ha, 3 weeks after application
Method in brief: (§1)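 Sowing in sterilized diluvial soil, 14 days' greenhouse growth at 25° C. to 30° C., then uniform small-sprayer foliar application of aqueous emulsion dilution; plants scored three weeks afterwards.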

Digitaria ciliaris = experiment: Test Example 5: herbicidal effect by foliage application, plastic box (symbol F); conditions: 320 g/ha, 3 weeks after application
Method in brief: as §1

Galium spurium [2] = experiment: Test Example 4: herbicidal effect by soil treatment (symbol Q)
Method in brief: (§2)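 Seeds were sown in sterilized diluvial soil, covered with about 1.5 cm of soil, and the soil surface was sprayed with a water-diluted emulsion of the compound at a predetermined rate. Plants grew in a greenhouse at 25° C. to 30° C.; effects were scored visually 3 weeks after application.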

wheat = experiment: Test Example 4: effect on crop by soil treatment (symbol e); conditions: for e: wheat, effect grade on crop: 320 g/ha
Method in brief: (§3)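 Crop seeds, among them rice, wheat, beet and rapeseed, were sown in sterilized diluvial soil and covered with about 1.5 cm of soil. Boxes were kept in a greenhouse at 25° C. to 30° C. for plant growth.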

[3] = system: Echinochloa crus-galli var. crus-galli; experiment: Test Example 3: herbicidal effect by foliage application, Wagner pot (symbol H); conditions: application herbicide amount 320 g/ha
Method in brief: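 In a shallow-flooded alluvial soil system held at 25–30 °C, plants including rice grew for 14 days and were then sprayed over the foliage with emulsion diluted to a fixed herbicide amount. Visual rating followed at 3 weeks.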

rice plant = experiment: Test Example 5: effect on crop by foliage application, plastic box (symbol b); conditions: 320 g/ha, 3 weeks after application
Method in brief: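 Foliage-application test plants come from spot sowing in sterilized diluvial soil under a soil layer of about 1.5 cm, grown at 25° C. to 30° C. in a greenhouse.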

Apera spica-venti = experiment: Test Example 4: herbicidal effect by soil treatment (symbol L)
Method in brief: as §2

rapeseed = experiment: Test Example 4: effect on crop by soil treatment (symbol g); conditions: for g: rapeseed, effect grade on crop: 320 g/ha
Method in brief: as §3

Monochoria vaginalis = experiment: Test Example 2: herbicidal activity, application during weed generation in submerged conditions (symbol C); conditions: Table 23; application herbicide amount 320 g/ha; grade 0-5 by criteria of Test Example 1
Method in brief: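 Compound was applied as a water-diluted emulsion into the standing water of flooded pots (4 cm) once co-sown weeds reached one to two leaves. Greenhouse temperature was 25° C. to 30° C., soil was alluvial, and each species was rated visually after 3 weeks.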

Avena fatua = experiment: Test Example 4: herbicidal effect by soil treatment (symbol I)
Method in brief: as §2

Stellaria media = experiment: Test Example 4: herbicidal effect by soil treatment (symbol P)
Method in brief: as §2

Veronica persica = experiment: Test Example 5: herbicidal effect by foliage application, plastic box (symbol R); conditions: 320 g/ha, 3 weeks after application
Method in brief: as §1

[4] = application herbicide amount 320 g/ha

Structure (SMILES) | Q: Galium spurium, herbicidal effect grade (Galium spurium [1]) | F: Digitaria ciliaris, herbicidal effect grade (Digitaria ciliaris) | Q: Galium spurium, herbicidal effect grade (Galium spurium [2]; [4]) | e: wheat, effect on crop grade (wheat; [4]) | herbicidal effect on H (Echinochloa crus-galli var. crus-galli), grade 0-5 [3] | b: directly sowed rice plant, effect on crop grade (rice plant) | L: Apera spica-venti, herbicidal effect grade (Apera spica-venti; [4]) | g: rapeseed, effect on crop grade (rapeseed; [4]) | Herbicidal effect grade, C: Monochoria vaginalis (Monochoria vaginalis) | I: Avena fatua, herbicidal effect grade (Avena fatua; [4]) | P: Stellaria media, herbicidal effect grade (Stellaria media; [4]) | other results
CCC(CCC1CC(O)=C(c2c(C)cc(C)cc2C)C1=O)=NOC (mixture of isomers) [4-001] | 0 (Herbicidal ratio of 5% or lower (almost no effect)) | 3 (Herbicidal ratio of 40% or higher and lower than 70%) | 0 (Herbicidal ratio of 5% or lower (almost no effect)) | 0 (Herbicidal ratio of 5% or lower (almost no effect)) | 2 (Herbicidal ratio of 20% or higher and lower than 40%) | 4 (Herbicidal ratio of 70% or higher and lower than 90%) | 5 (Herbicidal ratio of 90% or more (almost completely withered)) | 1 (Herbicidal ratio of 5% or higher and lower than 20%) | 0 (Herbicidal ratio of 5% or lower (almost no effect)) | 0 (Herbicidal ratio of 5% or lower (almost no effect)) | – | –
CCc1cc(-n2cc(Cl)cn2)cc(C)c1C1=C(O)CC(CC(C)=NOC)C1=O (mixture of isomers) [6-005] | 3 (Herbicidal ratio of 40% or higher and lower than 70%) | 5 (Herbicidal ratio of 90% or more (almost completely withered)) | 0 (Herbicidal ratio of 5% or lower (almost no effect)) | 4 (Herbicidal ratio of 70% or higher and lower than 90%) | 5 (Herbicidal ratio of 90% or more (almost completely withered)) | 5 (Herbicidal ratio of 90% or more (almost completely withered)) | 5 (Herbicidal ratio of 90% or more (almost completely withered)) | 0 (Herbicidal ratio of 5% or lower (almost no effect)) | 3 (Herbicidal ratio of 40% or higher and lower than 70%) | 4 (Herbicidal ratio of 70% or higher and lower than 90%) | 0 (Herbicidal ratio of 5% or lower (almost no effect)) | –
CON=C(C)CC1CC(OCC(=O)OC)=C(c2c(C)cc(C)cc2C)C1=O (stereo not drawn) [1-012] | 0 (Herbicidal ratio of 5% or lower (almost no effect)) | 0 (Herbicidal ratio of 5% or lower (almost no effect)) | – | – | 0 (Herbicidal ratio of 5% or lower (almost no effect)) | 0 (Herbicidal ratio of 5% or lower (almost no effect)) | – | – | 0 (Herbicidal ratio of 5% or lower (almost no effect)) | – | – | Q (Galium spurium) herbicidal effect grade (Galium spurium [2]; [4]): 0 (Herbicidal ratio of 5% or lower (almost no effect)); e (wheat) effect on crop grade (wheat; [4]): 0 (Herbicidal ratio of 5% or lower (almost no effect)); R: Veronica persica, herbicidal effect grade (Veronica persica): 0 (Herbicidal ratio of 5% or lower (almost no effect)); L (Apera spica-venti) herbicidal effect grade (Apera spica-venti; [4]): 0 (Herbicidal ratio of 5% or lower (almost no effect)); g (rapeseed) effect on crop grade (rapeseed; [4]): 0 (Herbicidal ratio of 5% or lower (almost no effect)); I (Avena fatua) herbicidal effect grade (Avena fatua; [4]): 0 (Herbicidal ratio of 5% or lower (almost no effect))
CON=C(C)CC1CC(OC(=O)C(C)(C)c2ccc(Cl)cc2)=C(c2c(C)cc(C)cc2C)C1=O (stereo not drawn) [1-148] | – | – | – | – | 5 (Herbicidal ratio of 90% or more (almost completely withered)) | – | – | – | 4 (Herbicidal ratio of 70% or higher and lower than 90%) | – | – | Q: Galium spurium, herbicidal effect (criteria 0-5) (Galium spurium [1]): 3 (Herbicidal ratio of 40% or higher and lower than 70%); F: Digitaria ciliaris, herbicidal effect (criteria 0-5) (Digitaria ciliaris): 5 (Herbicidal ratio of 90% or more (almost completely withered)); Q: Galium spurium, herbicidal effect grade (Galium spurium [2]; 320 g/ha): 0 (Herbicidal ratio of 5% or lower (almost no effect)); e: wheat, effect grade on crop (wheat): 0 (Herbicidal ratio of 5% or lower (almost no effect)); b: directly sowed rice plant, effect on crop (criteria 0-5) (rice plant): 5 (Herbicidal ratio of 90% or more (almost completely withered)); R: Veronica persica, herbicidal effect (criteria 0-5) (Veronica persica): 3 (Herbicidal ratio of 40% or higher and lower than 70%); L: Apera spica-venti, herbicidal effect grade (Apera spica-venti; 320 g/ha): 5 (Herbicidal ratio of 90% or more (almost completely withered)); g: rapeseed, effect grade on crop (rapeseed): 4 (Herbicidal ratio of 70% or higher and lower than 90%); P: Stellaria media, herbicidal effect grade (Stellaria media; 320 g/ha): 0 (Herbicidal ratio of 5% or lower (almost no effect)); I: Avena fatua, herbicidal effect grade (Avena fatua; 320 g/ha): 0 (Herbicidal ratio of 5% or lower (almost no effect))
CON=C(C)CC1CC(OC(=O)c2ccccc2OC(F)(F)F)=C(c2c(C)cc(C)cc2C)C1=O (stereo not drawn) [1-155] | – | – | – | – | 5 (Herbicidal ratio of 90% or more (almost completely withered)) | – | – | – | 3 (Herbicidal ratio of 40% or higher and lower than 70%) | – | – | Q: Galium spurium, herbicidal effect (criteria 0-5) (Galium spurium [1]): 0 (Herbicidal ratio of 5% or lower (almost no effect)); F: Digitaria ciliaris, herbicidal effect (criteria 0-5) (Digitaria ciliaris): 5 (Herbicidal ratio of 90% or more (almost completely withered)); Q: Galium spurium, herbicidal effect grade (Galium spurium [2]; 320 g/ha): 0 (Herbicidal ratio of 5% or lower (almost no effect)); e: wheat, effect grade on crop (wheat): 3 (Herbicidal ratio of 40% or higher and lower than 70%); b: directly sowed rice plant, effect on crop (criteria 0-5) (rice plant): 5 (Herbicidal ratio of 90% or more (almost completely withered)); R: Veronica persica, herbicidal effect (criteria 0-5) (Veronica persica): 3 (Herbicidal ratio of 40% or higher and lower than 70%); g: rapeseed, effect grade on crop (rapeseed): 4 (Herbicidal ratio of 70% or higher and lower than 90%); P: Stellaria media, herbicidal effect grade (Stellaria media; 320 g/ha): 0 (Herbicidal ratio of 5% or lower (almost no effect)); I: Avena fatua, herbicidal effect grade (Avena fatua; 320 g/ha): 4 (Herbicidal ratio of 70% or higher and lower than 90%)
COCC(=O)CC1CC(O)=C(c2c(C)cc(C)cc2C)C1=O (stereo not drawn) [2-007] | 0 (Herbicidal ratio of 5% or lower (almost no effect)) | 1 (Herbicidal ratio of 5% or higher and lower than 20%) | 0 (Herbicidal ratio of 5% or lower (almost no effect)) | 0 (Herbicidal ratio of 5% or lower (almost no effect)) | 5 (Herbicidal ratio of 90% or more (almost completely withered)) | 3 (Herbicidal ratio of 40% or higher and lower than 70%) | 3 (Herbicidal ratio of 40% or higher and lower than 70%) | 4 (Herbicidal ratio of 70% or higher and lower than 90%) | 0 (Herbicidal ratio of 5% or lower (almost no effect)) | 0 (Herbicidal ratio of 5% or lower (almost no effect)) | 0 (Herbicidal ratio of 5% or lower (almost no effect)) | –
CCC(=O)CCC1CC(O)=C(c2c(C)cc(C)cc2C)C1=O (stereo not drawn) [5-001] | 0 (Herbicidal ratio of 5% or lower (almost no effect)) | 4 (Herbicidal ratio of 70% or higher and lower than 90%) | 0 (Herbicidal ratio of 5% or lower (almost no effect)) | 0 (Herbicidal ratio of 5% or lower (almost no effect)) | 2 (Herbicidal ratio of 20% or higher and lower than 40%) | 4 (Herbicidal ratio of 70% or higher and lower than 90%) | 5 (Herbicidal ratio of 90% or more (almost completely withered)) | 0 (Herbicidal ratio of 5% or lower (almost no effect)) | 0 (Herbicidal ratio of 5% or lower (almost no effect)) | 0 (Herbicidal ratio of 5% or lower (almost no effect)) | – | R: Veronica persica, herbicidal effect grade (Veronica persica): 0 (Herbicidal ratio of 5% or lower (almost no effect))
CCc1cc(C)cc(C)c1C1=C(O)CC(CC(C)=NOC)C1=O (stereo not drawn) [6-007] | 0 (Herbicidal ratio of 5% or lower (almost no effect)) | 5 (Herbicidal ratio of 90% or more (almost completely withered)) | 0 (Herbicidal ratio of 5% or lower (almost no effect)) | 5 (Herbicidal ratio of 90% or more (almost completely withered)) | 5 (Herbicidal ratio of 90% or more (almost completely withered)) | 5 (Herbicidal ratio of 90% or more (almost completely withered)) | 5 (Herbicidal ratio of 90% or more (almost completely withered)) | – | 2 (Herbicidal ratio of 20% or higher and lower than 40%) | 4 (Herbicidal ratio of 70% or higher and lower than 90%) | 0 (Herbicidal ratio of 5% or lower (almost no effect)) | –
